According to patent publication US8999956B2, “N-[(het)arylalkyl)] pyrazole(thio)carboxamides and their heterosubstituted analogues” (Bayer Intellectual Property GmbH, priority 2010, dated 2015):
Like-named read-outs stand apart in the source and are kept apart here.

Key:
[1] = test system: aflatoxines produced by Aspergillus parasiticus; assay: microbe, parasite or virus in culture; assay type: cell-based
[2] = test system: Sphaerotheca fuliginea; assay: In vivo preventive test on Sphaerotheca fuliginea (cucumber); conditions: 500 ppm of active ingredient, evaluated 7 days after inoculation
Experimental: Solvent: 49 parts by weight of N,N-dimethylformamide Emulsifier: 1 part by weight of Alkylarylpolyglycolether To produce a suitable preparation of active compound, 1 part by weight of active compound is mixed with the stated amounts of solvent and emulsifier, and the concentrate is diluted with water to the desired concentration. To test for preventive activity, young plants are sprayed with the preparation of active compound at the stated rate of application. One day after this treatment, the plants are inoculated with an aqueous spore suspension of Sphaerotheca fuliginea. Then the plants are placed in a greenhouse at approximately 23° C. and a relative atmospheric humidity of approximately 70%.

[3] = test system: Botrytis cinerea; assay: In vivo preventive test on Botrytis cinerea (beans)
Experimental: Solvent: 24.5 parts by weight of acetone • 24.5 parts by weight of N,N-dimethylacetamide
Emulsifier: 1 part by weight of alkylaryl polyglycol ether
To produce a suitable preparation of active compound, 1 part by weight of active compound is mixed with the stated amounts of solvent and emulsifier, and the concentrate is diluted with water to the desired concentration.
To test for preventive activity, young plants are sprayed with the preparation of active compound. After the spray coating has dried on, 2 small pieces of agar covered with growth of Botrytis cinerea are placed on each leaf. The inoculated plants are placed in a darkened chamber at 20° C. and a relative atmospheric humidity of 100%.
2 days after the inoculation, the size of the lesions on the leaves is evaluated. 0% means an efficacy which corresponds to that of the untreated control, while an efficacy of 100% means that no disease is observed.

[4] = test system: Alternaria solani; assay: In vivo preventive test on Alternaria solani (tomato); conditions: 500 ppm of active ingredient, evaluated 7 days after inoculation
Outline: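 Young tomato plants sprayed preventively with compound in DMF/alkylarylpolyglycolether emulsion diluted in water to the stated rate. Inoculation with aqueous Alternaria solani spore suspension one day after treatment.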

[5] = test system: Aspergillus parasiticus; assay: microbe, parasite or virus in culture; assay type: cell-based
[6] = test system: Pyrenophora teres; assay: In vivo preventive test on Pyrenophora teres (barley); conditions: 500 ppm of active ingredient, evaluated 7-9 days after inoculation
Outline: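 Compound formulated in N,N-dimethylformamide with alkylaryl polyglycol ether emulsifier and diluted in water, then sprayed on young barley plants at the stated application rate. Plants inoculated one day later with aqueous Pyrenophora teres spore suspension, testing preventive protection.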

[7] = log P by HPLC on reversed-phase column (EEC Directive 79/831 Annex V.A8); assay type: physicochemical
Experimental: In table 1, the log P values were determined in accordance with EEC Directive 79/831 Annex V.A8 by HPLC (High Performance Liquid Chromatography) on a reversed-phase column (C18), using the method described below: Temperature: 40° C.; […]

[8] = test system: Uromyces appendiculatus; assay: In vivo preventive test on Uromyces appendiculatus (beans); conditions: 100 ppm of active ingredient, evaluated 10 days after inoculation
Experimental: (§1) Solvent: 24.5 parts by weight of acetone • 24.5 parts by weight of N,N-dimethylacetamide Emulsifier: 1 part by weight of alkylaryl polyglycol ether To produce a suitable preparation of active compound, 1 part by weight of active compound is mixed with the stated amounts of solvent and emulsifier, and the concentrate is diluted with water to the desired concentration. To test for preventive activity, young plants are sprayed with the preparation of active compound at the stated rate of application.

[9] = test system: Septoria tritici; assay: In vivo preventive test on Septoria tritici (wheat); conditions: 500 ppm of active ingredient, evaluated 21 days after inoculation
Experimental: Solvent: 49 parts by weight of N,N-dimethylacetamide Emulsifier: 1 part by weight of alkylaryl polyglycol ether To produce a suitable preparation of active compound, 1 part by weight of active compound or active compound combination is mixed with the stated amounts of solvent and emulsifier, and the concentrate is diluted with water to the desired concentration. To test for preventive activity, young plants are sprayed with the preparation of active compound or active compound combination at the stated rate of application. After the spray coating has been dried, the plants are sprayed with a spore suspension of Septoria tritici.

[10] = test system: Venturia inaequalis; assay: In vivo preventive test on Venturia inaequalis (apple scab); conditions: 100 ppm of active ingredient, evaluated 10 days after inoculation
Experimental: as §1

[11] = test system: Puccinia triticina; assay: In vivo preventive test on Puccinia triticina (wheat)
[12] = test system: Leptosphaeria nodorum; assay: In vivo preventive test on Leptosphaeria nodorum (wheat); conditions: 500 ppm of active ingredient, evaluated 7-9 days after inoculation
Experimental: as §1, with “Solvent: 49 parts by” for “Solvent: 24.5 parts by weight of acetone • 24.5 parts by”, “sprayed with a preparation of” for “sprayed with the preparation of”, “of application. One day after this treatment, the plants are inoculated with an aqueous spore suspension of Leptosphaeria nodorum.” for “of application.”

[13] = Table L, 500 ppm of active ingredient, lesion size 2 days after inoculation
[14] = Table K, 500 ppm of active ingredient, evaluated 8 days after inoculation
[15] = 500 ppm of active ingredient, lesion size 2 days after inoculation
[16] = Table L2, dose 500 ppm, comparison with des-fluoro analogues
[17] = 500 ppm of active ingredient, evaluated 8 days after inoculation
[18] = Puccinia triticina, 192 h, Table K5, dose 500 ppm, comparison with des-fluoro analogues, read-out: Efficacy
[19] = Table L5, dose 500 ppm, comparison with des-fluoro analogues

| SMILES | Efficacy [2] [%] | Efficacy [3, 13] [%] | Efficacy [4] [%] | Efficacy [6] [%] | logP [7] | further results |
| --- | --- | --- | --- | --- | --- | --- |
| CCC(C)C(C)N(C(=O)c1c(C(F)F)nn(C)c1F)C1CC1 (mixture of isomers) [Example 302] | 98 | 93 | 95 | 100 | – | % Inhibition of Aflatoxin at 50 μM [1]: 100%; % Inhibition of fungal growth at 50 μM [5]: 100% |
| CC(C)CC(C)C1CCCC1NC(=O)c1c(C(F)F)nn(C)c1Cl (single isomer, unassigned) [Example 313] | – | – | 80 | 100 | 4.46 isomer B | % Inhibition of Aflatoxin at 50 μM ([1]; 50 µM): 99%; Efficacy [8]: 88%; % Inhibition of fungal growth at 50 μM ([5]; 50 µM): 82% |
| CC(CC(C)(C)C)C1CCCCC1NC(=O)c1c(C(F)F)nn(C)c1F (single isomer, unassigned) [Example 361] | 91 | – | 95 | 95 | 4.89 isomer B | Efficacy [9]: 100%; Efficacy [10]: 88%; % Inhibition of Aflatoxin at 50 μM [1]: 100%; Efficacy [11, 14]: 90%; % Inhibition of fungal growth at 50 μM ([5]; 50 µM): 84% |
| Cn1cc(C(=O)N(C2CC2)C2CCCCC2Cc2ccccc2)c(C(F)F)n1 (centres unmarked) [16 from WO-2010/094666, N-(2-benzylcyclohexyl)-N-cyclopropyl-3-(difluoromethyl)-1-methyl-1H-pyrazole-4-carboxamide, reference compound] | – | – | – | – | – | Efficacy ([11]; 100 ppm of active ingredient, evaluated 8 days after inoculation, listed as example 16 disclosed in patent application WO-2010/094666): no protection; pest or weed control at 100 ppm ([11]; Puccinia triticina, 192 h, 100 ppm of active ingredient, evaluated 8 days after inoculation, read-out: Efficacy): 0%; pest or weed control at 500 ppm ([11]; Puccinia triticina, 192 h, 500 ppm of active ingredient, evaluated 8 days after inoculation, read-out: Efficacy): < 60%; Efficacy [3, 15]: 29%; Efficacy ([3]; 500 ppm of active ingredient, lesion size 2 days after inoculation, listed as example 16 disclosed in patent application WO-2010/094666): less than 30% |
| CC(N(C(=O)c1c(C(F)F)nn(C)c1Cl)C1CC1)C(C)(C)Cc1ccccc1 (centres unmarked) [Example 10] | – | 85 | 90 | 95 | 4.27 | – |
| Cn1nc(C(F)F)c(C(=O)N(C2CC2)C2CCCCC2Oc2ccccc2)c1F (centres unmarked) [Example 247] | 100 | – | – | 100 | 4.21 | Efficacy [12]: 95%; % Inhibition of Aflatoxin at 50 μM ([1]; 50 µM): 93%; Efficacy [11, 14]: 100%; % Inhibition of fungal growth at 50 μM ([5]; 50 µM): 78% |
| Cn1nc(C(F)F)c(C(=S)N(C[Si](C)(C)Cc2ccccc2)C2CC2)c1F [Example 289] | 93 | 100 | 95 | 100 | 4.67 | Efficacy [12]: 95% |
| Cn1nc(C(F)F)c(C(=O)N(C[Si](C)(C)Cc2cccc(Cl)c2)C2CC2)c1F [Example 291] | 73 | 100 | 100 | 100 | 4.44 | Efficacy [12]: 100%; % Inhibition of Aflatoxin at 50 μM [1]: 100%; % Inhibition of fungal growth at 50 μM [5]: 100% |
| CCCCC1CCCC1NC(=O)c1c(C(F)F)nn(C)c1Cl (centres unmarked) [Example 307] | 83 | – | 100 | 100 | 3.83 | Efficacy [10]: 100%; % Inhibition of Aflatoxin at 50 μM [1]: 100%; Efficacy [11, 14]: 80%; Efficacy [8]: 100%; % Inhibition of fungal growth at 50 μM [5]: 92% |
| CC(C)CCC1CCCC1NC(=O)c1c(C(F)F)nn(C)c1F (centres unmarked) [Example 310] | 100 | – | 100 | 100 | 3.98 | Efficacy [10]: 100%; % Inhibition of Aflatoxin at 50 μM [1]: 100%; Efficacy [8]: 100%; % Inhibition of fungal growth at 50 μM [5]: 96% |
| CC1CC(N(C(=O)c2c(C(F)F)nn(C)c2F)C2CC2)CC(C)(C)C1 (centres unmarked) [Example 322] | 90 | – | 90 | 100 | 4.31 | Efficacy [12]: 90%; % Inhibition of Aflatoxin at 50 μM [1]: 100%; Efficacy [11, 14]: 95%; % Inhibition of fungal growth at 50 μM [5]: 99% |
| CCC1(CNC(=O)c2c(C(F)F)nn(C)c2F)CCCCC1 [Example 366] | – | 84 | 90 | – | 3.55 | – |
| CC(CC1CCCCC1)N(C(=O)c1c(C(F)F)nn(C)c1F)C1CC1 (centres unmarked) [Example 370] | 100 | 100 | 100 | 100 | 4.36 | Efficacy [12]: 90%; Efficacy [11, 14]: 90% |
| Cn1nc(C(F)F)c(C(=O)N(C2CC2)C2CCCCC2C2CCCCC2)c1F (centres unmarked) [Example 372] | 100 | 91 | 95 | 100 | 5.28 | Efficacy [12]: 94%; Efficacy [11, 14]: 100% |
| Cn1nc(C(F)F)c(C(=O)N(C2CC2)C2CCCCC2C2=CCCCC2)c1F (centres unmarked) [Example 376] | – | – | – | – | 4.88 | Efficacy [8]: 94% |
| Cn1nc(C(F)F)c(C(=O)NC2(C3CCCCC3)CC2)c1F [Example 381] | 95 | 88 | 100 | 100 | 3.11 | – |
| Cn1cc(C(=O)N(CC2CCCCC2c2ccccc2)C2CC2)c(C(F)F)n1 (centres unmarked) [compound CMP1, N-cyclopropyl-3-(difluoromethyl)-1-methyl-N-[(2-phenylcyclohexyl)methyl]-1H-pyrazole-4-carboxamide, reference compound] | – | – | – | – | – | Efficacy [3, 16]: 0% |
| Cc1nn(C)c(F)c1C(=O)N(C1CC1)C1CCCC(c2ccccc2)C1 (centres unmarked) [compound CMP2, N-cyclopropyl-5-fluoro-1,3-dimethyl-N-(3-phenylcyclohexyl)-1H-pyrazole-4-carboxamide, reference compound] | – | – | – | – | – | Efficacy [11, 17]: no protection; pest or weed control at 500 ppm [11, 18]: 0%; Efficacy [3, 19]: 5% |
| Cn1cc(C(=O)N(C2CC2)C2CCCC(c3ccccc3)C2)c(C(F)F)n1 (centres unmarked) [compound CMP3, N-cyclopropyl-3-(difluoromethyl)-1-methyl-N-(3-phenylcyclohexyl)-1H-pyrazole-4-carboxamide, reference compound] | – | – | – | – | – | Efficacy [11, 17]: no protection; pest or weed control at 500 ppm [11, 18]: 0%; Efficacy [3, 19]: 0% |
| Cc1nn(C)c(F)c1C(=O)N(CC1CCCCC1c1ccccc1)C1CC1 (centres unmarked) [compound CMP9, N-cyclopropyl-5-fluoro-1,3-dimethyl-N-[(2-phenylcyclohexyl)methyl]-1H-pyrazole-4-carboxamide, reference compound] | – | – | – | – | – | Efficacy [3, 16]: 13% |
| Cc1nn(C)c(F)c1C(=O)N(C1CC1)C1CCCCC1Oc1ccccc1 (centres unmarked) [compound CMP10, N-cyclopropyl-5-fluoro-1,3-dimethyl-N-(2-phenoxycyclohexyl)-1H-pyrazole-4-carboxamide, reference compound] | – | – | – | – | – | Efficacy [3, 15]: less than 30%; Efficacy ([3]; Table L4, dose 500 ppm, comparison with des-fluoro analogue): 29% |
